According to PubChem BioAssay (NCI):
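Step 1: Grow cells in 96-well plates. Step 2: Expose to compound for 48 hours at 5 concentrations. Step 3: Interpolate endpoints linearly; if unreached, use highest concentration. The concentration for 50% growth inhibition is given as GI50. At the TGI there is no net growth.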

Legend:
Assay in all cases: NCI-60 cell line screen, 48 h
[1] = tested on: A549 NSCLC
[2] = tested on: CCRF-CEM leukemia
[3] = tested on: UACC-62 melanoma
[4] = tested on: SF-295 CNS
[5] = tested on: SK-MEL-28 melanoma
[6] = tested on: HCT-116 colon
[7] = tested on: K-562 leukemia
[8] = tested on: OVCAR-5 ovarian
[9] = tested on: NCI/ADR-RES ovarian

Row | Compound | TGI [1] | TGI [2] | TGI [3] | TGI [4] | TGI [5] | TGI [6] | TGI [7] | TGI [8] | GI50 [1] | GI50 [2] | GI50 [7] | GI50 [9] | TGI [9] | GI50 [5] | GI50 [8] | GI50 [6] | GI50 [3] | GI50 [4]
1 | CC(C)c1ccccc1NC(=O)C(=O)Cc1nc2ccccc2s1 | > 100 µM | > 100 µM | > 100 µM | > 100 µM | > 100 µM | > 100 µM | – | – | – | – | – | – | – | – | – | – | – | –
2 | O=C(CO)CC(=O)C(=O)Nc1nc([N+](=O)[O-])cs1 | > 100 µM | > 100 µM | > 100 µM | > 100 µM | > 100 µM | > 100 µM | > 100 µM | > 100 µM | – | – | – | – | – | – | – | – | – | –
3 | Cc1cc2c(=O)n(-c3ccc(F)cc3)c(C)nc2c(C(=O)O)c1C | > 100 µM | > 100 µM | > 100 µM | > 100 µM | > 100 µM | > 100 µM | > 100 µM | > 100 µM | – | – | – | – | – | – | – | – | – | –
4 | N/N=C1\C(=O)N(C2CCCCC2)C(=O)C1C(=O)NC1CCCCC1 (configuration not stated) | > 100 µM | > 100 µM | > 100 µM | > 100 µM | > 100 µM | > 100 µM | > 100 µM | > 100 µM | – | – | – | – | – | – | – | – | – | –
5 | COc1ccc(/C(=N/NC(=O)NN)C(c2ccc(OC)cc2)C2(O)CNc3c(Cl)cc(Cl)cc32)cc1 (configuration not stated) | > 100 µM | > 100 µM | > 100 µM | > 100 µM | > 100 µM | > 100 µM | > 100 µM | > 100 µM | – | – | – | – | – | – | – | – | – | –
6 | CC(=O)C1CC=C(C)CC1 (configuration not stated) | > 100 µM | > 100 µM | > 100 µM | > 100 µM | > 100 µM | > 100 µM | > 100 µM | > 100 µM | – | – | – | – | – | – | – | – | – | –
7 | Cc1cc(N(CCC#N)S(C)(=O)=O)ccc1C=O | > 100 µM | > 100 µM | > 100 µM | > 100 µM | > 100 µM | > 100 µM | > 100 µM | > 100 µM | – | – | – | – | – | – | – | – | – | –
8 | CC1C[C@H](OC(N)=O)C(C)CC1=O (some centres not stated) | > 100 µM | > 100 µM | > 100 µM | > 100 µM | – | > 100 µM | > 100 µM | > 100 µM | – | – | – | – | – | – | – | – | – | –
9 | Cc1ccc(C2NC(=S)NC3=C2CCOc2c3ccc3ccccc23)cc1 (configuration not stated) | > 100 µM | > 100 µM | – | – | > 100 µM | > 100 µM | > 100 µM | > 100 µM | > 100 µM | > 100 µM | 4.36 µM | 96.5 µM | > 100 µM | 57.4 µM | > 100 µM | > 100 µM | – | –
10 | COC1(OC)CC2C=C(S(=O)(=O)c3ccccc3)C1N(Cc1ccccc1)C2=O (configuration not stated) | > 100 µM | 90.9 µM | 58.4 µM | > 100 µM | > 100 µM | 30 µM | > 100 µM | – | – | – | – | – | – | – | – | – | – | –
11 | COc1cc(/C=C/c2cc(/C=C/c3ccc(O)c(OC)c3)n(-c3c(C)cccc3C)c(=O)n2)ccc1O | 7.6 µM | – | 3.28 µM | – | 5.1 µM | 3.38 µM | > 100 µM | 9.59 µM | 1.18 µM | – | 0.374 µM | 1.42 µM | 5.77 µM | 1.16 µM | 2.65 µM | 0.695 µM | 0.635 µM | –
12 | CCOC(=O)N1CCc2cc(OC)c(OC)c3c2C1CC3=O (configuration not stated) | > 100 µM | > 100 µM | > 100 µM | > 100 µM | – | > 100 µM | > 100 µM | > 100 µM | – | – | – | – | – | – | – | – | – | –
13 | Brc1ccc(-c2nnc(-c3nn(-c4ccccc4)c4nc5ccccc5nc34)o2)cc1 | > 100 µM | > 100 µM | > 100 µM | > 100 µM | > 100 µM | > 100 µM | > 100 µM | > 100 µM | – | – | – | – | – | – | – | – | – | –
14 | N#CC(C(=O)/C(=N\Nc1nc(=S)[nH]n1N)C(C#N)c1ccc(Cl)cc1)c1ccc(Cl)cc1 (configuration not stated) | > 100 µM | – | > 100 µM | > 100 µM | > 100 µM | > 100 µM | – | > 100 µM | – | – | – | – | – | – | – | – | – | –
15 | CCn1cc(/C=C/C(C)c2cn(CC)c(=O)[nH]c2=O)c(=O)[nH]c1=O (configuration not stated) | > 100 µM | > 100 µM | > 100 µM | > 100 µM | > 100 µM | – | > 100 µM | > 100 µM | – | – | – | – | – | – | – | – | – | –
16 | ClC1=C(Cl)C(Cl)=C(Cl)C1=C/C=C/c1ccccc1 | 1.24 µM | – | 0.467 µM | 1.02 µM | 0.597 µM | 0.457 µM | > 100 µM | 0.968 µM | 0.339 µM | 0.306 µM | 0.439 µM | 0.393 µM | – | 0.249 µM | 0.338 µM | 0.213 µM | 0.191 µM | 0.311 µM
17 | CCOC(=O)C(=O)Nc1ccc(C)cc1C | > 100 µM | > 100 µM | > 100 µM | > 100 µM | > 100 µM | > 100 µM | > 100 µM | > 100 µM | – | – | – | – | – | – | – | – | – | –

Row | Compound | TGI [1] | TGI [2] | TGI [3] | TGI [4] | TGI [5] | TGI [6] | TGI [7] | TGI [8] | GI50 [1] | GI50 [2] | GI50 [7] | GI50 [9] | TGI [9] | GI50 [5] | GI50 [8] | GI50 [6] | GI50 [3] | GI50 [4]
18 | CC(C)(C)[Si](C)(C)OCC1OC(n2cnc3c(NC(=O)c4ccccc4)ncnc32)CC1O (configuration not stated) | > 100 µM | 53.4 µM | 40.4 µM | 44.2 µM | 87.4 µM | 70.5 µM | 48.2 µM | > 100 µM | – | – | – | – | 98.7 µM | – | – | – | – | –
19 | C=C/C=C(\NC(=O)C(Cl)(Cl)Cl)[Si](C)(C)C | > 100 µM | > 100 µM | > 100 µM | > 100 µM | > 100 µM | > 100 µM | > 100 µM | > 100 µM | – | – | – | – | – | – | – | – | – | –
20 | COc1cc2c(cc1OCCOS(C)(=O)=O)N=C[C@@H]1CCCN1C2=O | > 100 µM | 54.9 µM | 42.5 µM | 75.4 µM | 61.5 µM | 36.5 µM | – | – | – | 14.5 µM | – | 13.5 µM | 26.7 µM | – | – | 18.5 µM | 19.4 µM | –
21 | COc1cc2c(cc1OC)-c1cc3cc(OC)c(OC)cc3n1CC2 | > 100 µM | > 100 µM | > 100 µM | > 100 µM | > 100 µM | > 100 µM | > 100 µM | > 100 µM | – | – | – | – | – | – | – | – | – | –
22 | O=S(O)CCCCCSSCCCCSSCCCCCS(=O)O | > 100 µM | > 100 µM | > 100 µM | > 100 µM | > 100 µM | – | > 100 µM | > 100 µM | – | – | – | – | – | – | – | – | – | –
23 | O=C(CC1(O)C(=O)Nc2ccccc21)c1ccccc1Cl (configuration not stated) | > 100 µM | – | > 100 µM | > 100 µM | > 100 µM | > 100 µM | > 100 µM | > 100 µM | – | – | – | – | – | – | – | – | – | –
24 | CC1=CC(=O)CCC2(C)C1CC[C@@H]2OC=O (some centres not stated) | > 100 µM | > 100 µM | > 100 µM | > 100 µM | > 100 µM | > 100 µM | > 100 µM | > 100 µM | – | – | – | – | – | – | – | – | – | –
25 | Cc1ccc(-c2nc(SCC(=O)O)n[nH]2)cc1 | > 100 µM | > 100 µM | > 100 µM | > 100 µM | > 100 µM | > 100 µM | > 100 µM | > 100 µM | – | – | – | – | – | – | – | – | – | –
26 | COc1cc(C(=O)/C=C/c2cc(C(=O)c3cc(OC)c(OC)c(OC)c3)ccc2OC)ccc1N | 29 µM | > 100 µM | 2.66 µM | 17.4 µM | 3.75 µM | 2.03 µM | > 100 µM | – | 3.2 µM | 0.35 µM | 0.386 µM | 0.388 µM | 2.51 µM | 1.36 µM | – | 0.661 µM | 1.17 µM | 2.3 µM
27 | CN(C)c1ccc(N=Cc2c([O-])ccc3ccccc23)cc1.[C-]#[O+].[C-]#[O+].[Ir] | 89.3 µM | > 100 µM | 35.9 µM | 55 µM | – | 32.1 µM | > 100 µM | 64.3 µM | 31.8 µM | 4.76 µM | 37 µM | – | – | – | 29.1 µM | 17.7 µM | 17.2 µM | 20 µM
28 | CCOC(=O)c1sc2nc3sc(N=Nc4ccc(Cl)cc4)c(O)n3c(=S)c2c1C | > 100 µM | > 100 µM | 32.5 µM | > 100 µM | > 100 µM | > 100 µM | > 100 µM | > 100 µM | 35 µM | 32.2 µM | > 100 µM | 17.4 µM | 44.6 µM | 28.4 µM | 36.9 µM | 33.8 µM | 13 µM | 31 µM
29 | CC/C=C1\N=C(c2ccc(Cl)cc2)OC1=O | > 100 µM | > 100 µM | > 100 µM | > 100 µM | > 100 µM | – | > 100 µM | > 100 µM | – | – | – | – | – | – | – | – | – | –
30 | CC(C)(C)NN=C1C(C)(C)C(=NNC(C)(C)C)C1(C)C | > 100 µM | – | > 100 µM | > 100 µM | > 100 µM | > 100 µM | > 100 µM | > 100 µM | – | – | – | – | – | – | – | – | – | –
31 | Cn1c2c(c3ccccc31)C1CCCCC1C1C(=O)NC(=O)C21 (configuration not stated) | > 100 µM | > 100 µM | > 100 µM | > 100 µM | > 100 µM | – | > 100 µM | > 100 µM | – | – | – | – | – | – | – | – | – | –
32 | C[C@]12CCC[C@H](Cl)C1(O)C[C@H](C(=O)O)CC2 (some centres not stated) | > 100 µM | > 100 µM | > 100 µM | > 100 µM | > 100 µM | > 100 µM | > 100 µM | > 100 µM | – | – | – | – | – | – | – | – | – | –
33 | CCOC(=O)C(=O)Nc1c(F)cc(F)cc1Br | > 100 µM | > 100 µM | > 100 µM | > 100 µM | > 100 µM | > 100 µM | > 100 µM | > 100 µM | – | – | – | – | – | – | – | – | – | –
34 | CN1C2(c3ccccc3)c3c(-c4ccccc4)sc(-c4ccccc4)c3C1(c1ccccc1)C1C(=O)N(c3ccccc3)C(=O)C12 (configuration not stated) | > 100 µM | > 100 µM | > 100 µM | > 100 µM | > 100 µM | > 100 µM | > 100 µM | > 100 µM | – | – | – | – | – | – | – | – | – | –
